The text below walks through data of ChEMBL document CHEMBL1201862, “PubChem BioAssay data set” (2004).

For orientation: GI50 means the concentration at which growth is held to half of that of the control.

Each structure is given as a SMILES string.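 Briefly, cells in 96-well plates were exposed to five compound concentrations for 48 h, and endpoints were estimated by linear interpolation. Here, GI50 denotes the concentration required for 50% inhibition of growth.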 Active and inactive are the calls of the source. Rule as the data show it: active = GI50 up to about 1.1 µM and inactive = higher. Non-standard residues stand in square brackets, D forms with d. Residues, ends and D or L forms follow the SMILES beside them. ΔPro = O=C(O)[CH]1C=CCN1

Test systems include UACC-62; DU-145; T47D; IGROV-1; K562; SF-268; Hs-578T; OVCAR-3; NCI-H460; 786-0; OVCAR-5; PC-3; SF-539; HCT-116; A498; MDA-MB-231; CCRF-CEM; MCF7; SNB-75; HT-29.
What all share (assay): DTP human tumour cell line panel, 48 h

With `Cc1ccc(C(=N)c2ccccc2Cc2cccc3ccccc23)c2ccccc12`, the GI50 was 99.1 µM (inactive) in the test on UACC-62; > 100 µM (inactive) in the test with DU-145; 65.3 µM (inactive) in the test on T47D; > 100 µM (inactive) with IGROV-1; 80 µM (inactive) in the test on K562; > 100 µM (inactive) in the test with SF-268. The GI50 in the test with Hs-578T was > 100 µM (inactive); with OVCAR-3, 79.1 µM (inactive); in the test with NCI-H460 it was 41.5 µM (inactive); with 786-0 it was > 100 µM (inactive); with OVCAR-5 it was > 100 µM (inactive); with PC-3, > 100 µM (inactive). In addition, the GI50 in the test on SF-539 is > 100 µM (inactive); with HCT-116 it was 22.1 µM (inactive); with A498, > 100 µM (inactive); with MDA-MB-231, > 100 µM (inactive); in the test on CCRF-CEM it was 82.6 µM (inactive); in the test with MCF7, 42.6 µM (inactive). The GI50 is > 100 µM (inactive) with SNB-75 and 11.7 µM (inactive) with HT-29.
Consider `O=C(O)C1C=CCN1C(=O)C1C=CCN1C(=O)C1C=CCN1` (stereo not given) (H-[ΔPro]-[ΔPro]-[ΔPro]-OH; configuration not given here), for which the GI50 in the test with UACC-62, with DU-145, in the test with T47D, in the test on IGROV-1, in the test on K562 and in the test on SF-268 was > 100 µM (inactive) each time. The GI50 in the test on Hs-578T, in the test with OVCAR-3, with NCI-H460, in the test with 786-0, in the test on OVCAR-5 and in the test with PC-3 was > 100 µM (inactive) throughout. Moreover, the GI50 in the test with SF-539, in the test with HCT-116, in the test with A498, with MDA-MB-231, in the test with CCRF-CEM and with MCF7 was > 100 µM (inactive) in each case. For the same compound, the GI50 in the test with SNB-75 and in the test with HT-29 was > 100 µM (inactive) in each case.
As for `Clc1cc(Cl)cc(/N=C/C=C/Nc2cc(Cl)cc(Cl)c2)c1`, the GI50 in the test on UACC-62 is 19.7 µM (inactive); in the test on DU-145, 21 µM (inactive); in the test with T47D, 22.9 µM (inactive); with IGROV-1, 22.6 µM (inactive); with K562, 23.6 µM (inactive); with SF-268 it was 18.9 µM (inactive). Further, the GI50 in the test with Hs-578T was 19.1 µM (inactive); in the test on OVCAR-3 it was 13.7 µM (inactive); in the test on NCI-H460 it was 19.1 µM (inactive); in the test on 786-0 it was 17.3 µM (inactive); with OVCAR-5, 21.6 µM (inactive); in the test on PC-3, 16.4 µM (inactive). Further, the GI50 in the test on SF-539 was 21.6 µM (inactive); in the test with HCT-116, 15.5 µM (inactive); with A498, 21 µM (inactive); in the test on MDA-MB-231, 14.2 µM (inactive); in the test with CCRF-CEM it was 20.8 µM (inactive); in the test on MCF7, 13.4 µM (inactive). Further, the GI50 in the test on SNB-75 is 13.1 µM (inactive); in the test with HT-29, 14.7 µM (inactive).
For the compound `Cc1cc2c(cc1Cl)SC(NNC(=O)c1ccccc1)=NS2(=O)=O`, the GI50 in the test with UACC-62, in the test with DU-145, in the test on T47D, in the test with IGROV-1, in the test with K562 and with SF-268 was > 10 µM (inactive) throughout. The GI50 in the test with Hs-578T, in the test with OVCAR-3, in the test on NCI-H460, in the test on 786-0, in the test on OVCAR-5 and with PC-3 was > 10 µM (inactive) in each case. The GI50 in the test with SF-539 is > 10 µM (inactive); in the test with HCT-116, > 10 µM (inactive); in the test on A498, > 10 µM (inactive); with MDA-MB-231 it was > 10 µM (inactive); in the test with CCRF-CEM, > 10 µM (inactive); with MCF7, 2.21 µM (inactive). The GI50 with SNB-75 and in the test with HT-29 was > 10 µM (inactive) throughout.
For `CN(C)CCCNC(=O)N/N=C/c1ccc([N+](=O)[O-])cc1`, the GI50 in the test on UACC-62 was > 100 µM (inactive); in the test with DU-145, > 100 µM (inactive); in the test with T47D it was 86.1 µM (inactive); in the test with IGROV-1, > 100 µM (inactive); in the test on K562 it was > 100 µM (inactive); in the test on SF-268, > 100 µM (inactive). In addition, the GI50 with Hs-578T was 46.7 µM (inactive); in the test on OVCAR-3, > 100 µM (inactive); with NCI-H460 it was > 100 µM (inactive); with 786-0 it was > 100 µM (inactive); in the test with OVCAR-5 it was > 100 µM (inactive); in the test on PC-3 it was > 100 µM (inactive). Moreover, the GI50 in the test with SF-539 was 82.2 µM (inactive); with HCT-116, > 100 µM (inactive); with A498, 66.4 µM (inactive); in the test on MDA-MB-231, > 100 µM (inactive); in the test on CCRF-CEM, > 100 µM (inactive); in the test on MCF7, 53.1 µM (inactive). Also, the figures for the GI50 in the test on SNB-75 and with HT-29 were 25.4 µM (inactive) and > 100 µM (inactive), respectively.
As to `COc1ccc(NC(=O)CC(=O)n2nc(-c3ccccc3)c(/N=N/c3ccc(C)cc3)c2-c2ccccc2)cc1`, the GI50 was 27.9 µM (inactive) in the test with UACC-62; > 59.7 µM (inactive) with DU-145; 36.1 µM (inactive) with T47D; 16.9 µM (inactive) with IGROV-1; > 85.3 µM (inactive) with K562; 21.6 µM (inactive) in the test on SF-268. Besides, the GI50 is 16.6 µM (inactive) in the test on Hs-578T; 43 µM (inactive) in the test with OVCAR-3; 35.3 µM (inactive) in the test on NCI-H460; 19.2 µM (inactive) with 786-0; > 80 µM (inactive) with OVCAR-5; > 41.4 µM (inactive) with PC-3. Also, the GI50 in the test on SF-539 was 25.4 µM (inactive); in the test with HCT-116, 34.1 µM (inactive); with A498 it was > 49.3 µM (inactive); in the test on MDA-MB-231, 25.6 µM (inactive); in the test with CCRF-CEM it was > 84.7 µM (inactive); with MCF7, > 52.1 µM (inactive). The GI50 in the test with SNB-75 is 16.4 µM (inactive); in the test on HT-29 it was > 88.3 µM (inactive).
As for `O=S(=O)(c1ccccc1)C1CN(Cc2ccccc2)CCN(Cc2ccccc2)C1`, the GI50 is 11.4 µM (inactive) in the test with UACC-62; 80.5 µM (inactive) with DU-145; 30 µM (inactive) in the test on T47D; 35.8 µM (inactive) in the test on IGROV-1; 5.97 µM (inactive) in the test with K562; 29.4 µM (inactive) in the test on SF-268. Further, the GI50 with Hs-578T was 37.2 µM (inactive); in the test with OVCAR-3, 26.6 µM (inactive); in the test with NCI-H460 it was 26.7 µM (inactive); in the test with 786-0, > 74 µM (inactive); with OVCAR-5, > 100 µM (inactive); in the test on PC-3 it was 8.71 µM (inactive). The GI50 in the test on SF-539 was 77.6 µM (inactive); in the test on HCT-116, 18.1 µM (inactive); with A498, > 100 µM (inactive); in the test with MDA-MB-231, 39.2 µM (inactive); with CCRF-CEM, 5.14 µM (inactive); in the test on MCF7 it was 36.8 µM (inactive). For the same compound, the GI50 in the test with SNB-75 is 61.5 µM (inactive); with HT-29, 24.5 µM (inactive).
On to `O=c1c2ccccc2oc2c1ccc1ncccc12`, for which the GI50 with UACC-62 was 11 µM (inactive); in the test with DU-145, 4.69 µM (inactive); with T47D, 12.1 µM (inactive); in the test on IGROV-1 it was 11 µM (inactive); in the test with K562, 24.7 µM (inactive); in the test on SF-268 it was 17.2 µM (inactive). Further, the GI50 in the test with Hs-578T was 11.9 µM (inactive); in the test on OVCAR-3, 18 µM (inactive); with NCI-H460, 3.56 µM (inactive); in the test with 786-0 it was 12.3 µM (inactive); in the test with OVCAR-5 it was 1.4 µM (inactive); with PC-3 it was 22.4 µM (inactive). Besides, the GI50 in the test with SF-539 was 19.6 µM (inactive); in the test on HCT-116, 6.34 µM (inactive); in the test with A498 it was 5.01 µM (inactive); in the test on MDA-MB-231, 26.8 µM (inactive); in the test on CCRF-CEM, 11.1 µM (inactive); with MCF7 it was 8.55 µM (inactive). The GI50 in the test with SNB-75 was 21.3 µM (inactive); in the test with HT-29, 14.5 µM (inactive).
Turning to `Cc1cc(-c2nc3cc(F)ccc3s2)ccc1NC(=O)C(C)N` (stereo not given), the GI50 in the test with UACC-62 was 4.02 µM (inactive); in the test on DU-145, 4.42 µM (inactive); in the test with T47D it was 0.0847 µM (active); with IGROV-1, 0.0408 µM (active); in the test with K562 it was 5.62 µM (inactive); in the test on SF-268, 4.53 µM (inactive). The GI50 with Hs-578T was 4.95 µM (inactive); with OVCAR-3 it was 3.41 µM (inactive); in the test on NCI-H460 it was 0.955 µM (active); with 786-0, 3.76 µM (inactive); in the test on OVCAR-5, 1 µM (active); in the test with PC-3, 4.13 µM (inactive). The GI50 is 10.4 µM (inactive) in the test with SF-539; 3.29 µM (inactive) in the test with HCT-116; 3.77 µM (inactive) with A498; 3.77 µM (inactive) in the test with MDA-MB-231; 0.64 µM (active) with CCRF-CEM; 0.0258 µM (active) with MCF7. Moreover, the GI50 in the test on SNB-75 was 5.05 µM (inactive); in the test on HT-29, 4.12 µM (inactive).
On to `CSc1nc(C)c2c(n1)N(c1ccc(Cl)cc1)CC2`, for which the GI50 was > 100 µM (inactive) with UACC-62; > 100 µM (inactive) in the test with DU-145; > 100 µM (inactive) in the test with T47D; > 100 µM (inactive) in the test with IGROV-1; 88.3 µM (inactive) in the test on K562; > 100 µM (inactive) in the test with SF-268. In addition, the GI50 is > 100 µM (inactive) in the test on Hs-578T; > 100 µM (inactive) in the test on OVCAR-3; > 100 µM (inactive) in the test with NCI-H460; 77.1 µM (inactive) with 786-0; > 100 µM (inactive) with OVCAR-5; > 100 µM (inactive) in the test on PC-3. For the same compound, the GI50 in the test with SF-539 is 70.8 µM (inactive); in the test on HCT-116 it was > 100 µM (inactive); in the test on A498 it was > 100 µM (inactive); with MDA-MB-231, 42.3 µM (inactive); in the test with CCRF-CEM, > 100 µM (inactive); in the test with MCF7 it was > 100 µM (inactive). The GI50 in the test on SNB-75 was 0.0946 µM (active); in the test with HT-29, > 100 µM (inactive).
